Results on one molecule are retold here after paper PMC3568925 (Biochemistry, 2013).

This experiment addresses BacD (Bacillus subtilis, UniProt P39641). As to the kind of experiment: LC/MS and 1H-NMR of dipeptide product. It is filed as biochemical. The conditions noted are these: 1 mM substrate, 3 mM L-Ala, 3 mM ATP, 5 mM MgCl2, 20 uM BacD, 50 mM potassium phosphate pH 8.0, room temperature.

The structures appear in SMILES notation.

BacD, sequence (P39641 whole entry): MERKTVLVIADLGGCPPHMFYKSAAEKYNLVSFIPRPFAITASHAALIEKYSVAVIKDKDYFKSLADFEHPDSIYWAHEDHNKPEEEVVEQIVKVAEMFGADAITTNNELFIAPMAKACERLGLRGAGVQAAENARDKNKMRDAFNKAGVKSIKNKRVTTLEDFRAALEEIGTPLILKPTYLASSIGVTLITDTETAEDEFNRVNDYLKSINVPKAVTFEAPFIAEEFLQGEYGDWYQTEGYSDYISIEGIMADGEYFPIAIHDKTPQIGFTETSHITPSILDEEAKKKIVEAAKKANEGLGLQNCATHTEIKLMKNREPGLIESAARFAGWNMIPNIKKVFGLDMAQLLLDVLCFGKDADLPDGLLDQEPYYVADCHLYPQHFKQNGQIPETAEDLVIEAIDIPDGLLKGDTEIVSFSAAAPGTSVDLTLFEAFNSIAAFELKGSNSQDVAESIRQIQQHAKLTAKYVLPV

On to `N[C@@H](C[C@H]1C=C[C@H](O)CC1)C(=O)O` [4S-H4Tyr], for which the “LC/MS and 1H-NMR of dipeptide product” value is “BacD would ligate L-Ala onto the N-terminus of both the 4S and 4R diastereomers”.
